“And” between values parts separate entries of the source, which are not always exact repeats. Equal entries are not always repeated. Where two headings read alike, the source gives them in different places.
Legend:
HeLa cells [1] = details: cited from earlier work
HeLa cells [2] = assay: Flow cytometry detection for cell apoptosis (Annexin V/PI); type: cell-based, human; details: for Q1 (flow cytometry quadrant, Figure 4A) / Q4 (flow cytometry quadrant, Figure 4A) / Q2: FITC-A+ , PE-A+ Freq. of Parent / Q3: FITC-A+ , PE-A- Freq. of Parent: Annexin V/PI; for Q2: FITC-A+ , PE-A+ Freq. of Parent / Q3: FITC-A+ , PE-A- Freq. of Parent / Q2+Q3 (column without head, sum on percent scale) / Q2+Q3 (as fraction): single samples
Protocol: Cell-apoptosis analysis was carried out by flow cytometry using the Annexin V/PI apoptosis kit (Solarbio, China) according to the manufacturer’s manual. Briefly, HeLa (5 × 10^4/well) cells were seeded in 12-well plates for 24 h and then treated with 0.1% DMSO (as control) or various concentrations of compounds 4d, 4k, and 4l for 72 h, respectively. Cells were harvested, washed with PBS, and then incubated with 100 μl of 1 × Annexin V binding buffer containing 1 μl FITC Annexin V for 10 min at RT in the dark. Cells were incubated for another 5 min at room temperature (RT) in the dark after 1 μl PI was added. PBS (200 µl) was added to each tube for flow cytometry analysis (BriCyte E6). The percentages of apoptotic cells were analyzed using FlowJo soft.

HeLa cells [3] = assay: Colony formation assay; type: cell-based, human; details: for effect on cell colony formation: 2 weeks
Protocol: HeLa cells were seeded in six-well plates at the density of 500/well for 24 h, and then treated with 0.1% DMSO (as control), various concentrations of compounds 4d, 4k, and 4l, respectively. The cells were incubated for 2 weeks in a 5% CO2 environment at 37°C for colony formation. The media was gently removed from each of the plates, and then each plate was washed with PBS twice. The colonies were fixed with 4% polyformaldehyde for 10 min and then wash the cells with ddH2O twice. Stain with 1 ml Crystal Violet Staining Solution (Beyotime, China) for 10 min. Wash excess crystal violet with ddH2O and allow dishes to dry. Take pictures of the plate and count the colonies.

HeLa cells [4] = assay: Cell antiproliferative activity assay (CCK8); type: cell-based, human; details: Homo sapiens; for IC50: HeLa; for inhibition at 0.25 µM: 250 nM; for inhibition at 0.5 µM: 500 nM; for inhibition at 1 µM: 1000 nM; for inhibition at 2 µM: 2000 nM; for inhibition at 4 µM: 4000 nM; for inhibition at 8 µM: 8000 nM; for inhibition at 16 µM: 16000 nM
Protocol: Cell antiproliferative activity was evaluated by the Cell Counting Kit-8 (CCK8, DOJINDO, Japan) assay. The cells were seeded at a density of 2,000 cells per well into 96-well microplate in 100 μl of growth medium. Cells were incubated at 37°C and 5% CO2 overnight. The next day, 100 μl per well of diluted inhibitor in growth medium was added with the final concentration from 0.1 nM to 100 μM. The cells were treated with DMSO as control. A series of dilutions are made in 0.1% DMSO in assay medium so that the final concentration of DMSO is 0.1% in all of treatments. Cells were incubated at 37°C and 5% CO2 for 48 h. Then, 10 μl of CCK8 was added to each well. The plates were incubated at 37°C for 2 h; after that, the plates were recorded by measuring absorbance at 450 nm with the reference wavelength of 630 nm using an EnVision Multilabel Reader (PerkinElmer). The IC50 values were calculated using GraphPad Prism 6.0 software and determined by the concentration causing a half-maximal percent activity. All assays were conducted with three parallel samples and three repetitions.

[5] = chromenocarbazole tethered 1,2,3-triazoles, ref Chavan et al., 2019, read-out: IC50 antiproliferative activity in HeLa cells
[6] = amidino 2-substituted benzimidazoles linked to 1,2,3-triazoles, ref Raic-Malic et al., read-out: IC50 antiproliferation activities against HeLa cells
[7] = 48 h, HeLa cells, CCK8, 48 h, mean ± SD, n = 3, read-out: IC50 (μM) HeLa
[8] = HELA 2000cells/well, supplement DataSheet2, Repeat1, read-out: IC50 Repeat1
[9] = HELA 2000cells/well, supplement DataSheet2, Repeat 2, read-out: IC50 Repeat 2
[10] = HELA 2000cells/well, supplement DataSheet2, mean of two repeats ± SD, read-out: IC50 mean±SD
[11] = HELA 2000cells/well, Repeat1, read-out: Inhibition (%) Repeat1
[12] = HELA 2000cells/well, Repeat2, read-out: Inhibition (%) Repeat2

## Cc1ccc(Cn2cc(CN3C(=O)C4(C(C#N)=C(N)Oc5c4ccc4[nH]c6ccccc6c54)c4ccccc43)nn2)cc1 (centres unmarked) [6b]
HeLa cells [1]; [5]
  IC50: 4.05 µM

## N#CC1=C(N)Oc2c(ccc3[nH]c4ccccc4c23)C12C(=O)N(Cc1cn(Cc3ccc(C(F)(F)F)cc3)nn1)c1ccccc12 (centres unmarked) [6g]
HeLa cells [1]; [5]
  IC50: 3.54 µM

## N#CC1=C(N)Oc2c(ccc3[nH]c4ccccc4c23)C12C(=O)N(Cc1cn(Cc3ccc(Cl)cc3)nn1)c1ccc(Br)cc12 (centres unmarked) [6s]
HeLa cells [1]; [5]
  IC50: 3.83 µM

## Cc1ccc(Cn2cc(CN3C(=O)C4(C(C#N)=C(N)Oc5c4ccc4[nH]c6ccccc6c54)c4cc(F)ccc43)nn2)cc1 (centres unmarked) [6u]
HeLa cells [1]; [5]
  IC50: 3.35 µM

## CC(C)NC(=N)c1ccc2[nH]c(-c3ccc(OCc4cn(Cc5ccc(Cl)cc5)nn4)cc3)nc2c1 [10c]
HeLa cells [1]; [6]
  IC50: 17.5 µM

## c1ccc(Cn2cc(COc3ccc(-c4nc5cc(C6=NCCN6)ccc5[nH]4)cc3)nn2)cc1 [11f]
HeLa cells [1]; [6]
  IC50: 6.63 µM

## COc1ccc2c(-n3cc(-c4cc(OC)c(OC)c(OC)c4)nn3)c(C(=O)Nc3ccccc3)oc2c1 [17 g, 6-methoxy-N-phenyl-3-[4-(3,4,5-trimethoxyphenyl)-1H-1,2,3-triazol-1-yl] benzofuran-2 carboxamide]
HeLa cells [1]; ref Qi et al., 2020, read-out: IC50 antiproliferative activities against HeLa cells
  IC50: 0.73 ± 0.67 µM

## COCCOc1cc2ncnc(Nc3cccc(-c4cn(Cc5cc(Br)cc(Br)c5)nn4)c3)c2cc1OCCOC [Compound 4d, [6,7-Bis-(2-methoxy-ethoxy)-quinazolin-4-yl]-{3-[1-(3,5-dibromo-benzyl)-1H-[1,2,3]triazol-4-yl]-phenyl}-amine]
HeLa cells [2]; 3 μM, 72 h
  Q1 (flow cytometry quadrant, Figure 4A): 5.78%
  Q4 (flow cytometry quadrant, Figure 4A): 84.2%
  Q2: FITC-A+ , PE-A+ Freq. of Parent: 9.25%
  Q3: FITC-A+ , PE-A- Freq. of Parent: 0.82%
HeLa cells [2]; 3 μM, 72 h, listed as e4
  Q2: FITC-A+ , PE-A+ Freq. of Parent: 6.79% and 7.35% and 9.25%
  Q3: FITC-A+ , PE-A- Freq. of Parent: 1.73% and 1.08% and 0.82%
HeLa cells [2]; 3 μM, listed as e4
  Q2+Q3 (column without head, sum on percent scale): 8.52 and 8.43 and 10.07
HeLa cells [2]; 6 μM, 72 h
  Q1 (flow cytometry quadrant, Figure 4A): 5.52%
  Q4 (flow cytometry quadrant, Figure 4A): 81.2%
  Q2: FITC-A+ , PE-A+ Freq. of Parent: 10.5%
  Q3: FITC-A+ , PE-A- Freq. of Parent: 2.69%
HeLa cells [2]; 6 μM, 72 h, listed as e4
  Q2: FITC-A+ , PE-A+ Freq. of Parent: 8.90% and 10.1% and 10.5%
  Q3: FITC-A+ , PE-A- Freq. of Parent: 3.61% and 5.29% and 2.69%
HeLa cells [2]; 6 μM, listed as e4
  Q2+Q3 (column without head, sum on percent scale): 12.51 and 15.39 and 13.19
HeLa cells [2]; 12 μM, 72 h
  Q1 (flow cytometry quadrant, Figure 4A): 2.40%
  Q4 (flow cytometry quadrant, Figure 4A): 5.68%
  Q2: FITC-A+ , PE-A+ Freq. of Parent: 86.4%
  Q3: FITC-A+ , PE-A- Freq. of Parent: 5.49%
HeLa cells [2]; 12 μM, 72 h, listed as e4
  Q2: FITC-A+ , PE-A+ Freq. of Parent: 86.4% and 80.4% and 81.8%
  Q3: FITC-A+ , PE-A- Freq. of Parent: 5.49% and 3.94% and 3.82%
HeLa cells [2]; 12 μM, 72 h, three independent experiments
  cell apoptosis in HeLa cells, percentage: 87.28%
HeLa cells [2]; 12 μM, listed as e4
  Q2+Q3 (column without head, sum on percent scale): 91.89 and 84.34 and 85.62
HeLa cells [3]; 6 μM
  effect on cell colony formation: decrease the number of colonies
HeLa cells [3]; 12 μM
  effect on cell colony formation: entirely inhibited
HeLa cells [3]; 12 uM, repeats 1-3
  Number of Colonies /well: 0
HeLa cells [4]; [7]
  IC50: 7.02 ± 0.04 µM
HeLa cells [4]; [8]
  IC50: 7.07 µM
HeLa cells [4]; [9]
  IC50: 6.98 µM
HeLa cells [4]; [10]
  IC50: 7.025 ± 0.0445 µM
HeLa cells [4]; [11]
  inhibition at 0.25 µM: 9.75%
  inhibition at 0.5 µM: 13%
  inhibition at 1 µM: 16.9%
  inhibition at 2 µM: 17%
  inhibition at 4 µM: 25.3%
  inhibition at 8 µM: 53.2%
  inhibition at 16 µM: 78.2%
HeLa cells [4]; [12]
  inhibition at 0.25 µM: 0%
  inhibition at 0.5 µM: 13.6%
  inhibition at 1 µM: 14%
  inhibition at 2 µM: 15.3%
  inhibition at 4 µM: 26.6%
  inhibition at 8 µM: 54.6%
  inhibition at 16 µM: 78.4%

## COCCOc1cc2ncnc(Nc3cccc(-c4cn(-c5cccc([N+](=O)[O-])c5)nn4)c3)c2cc1OCCOC [Compound 4m, [6,7-Bis-(2-methoxy-ethoxy)-quinazolin-4-yl]-{3-[1-(3-nitro-phenyl)-1H-[1,2,3]triazol-4-yl]-phenyl}-amine]
other
  melting point: 98 to 101 °C
HeLa cells [4]; [7]
  IC50: 3.79 ± 0.1 µM
HeLa cells [4]; [8]
  IC50: 3.89 µM
HeLa cells [4]; [9]
  IC50: 3.69 µM
HeLa cells [4]; [10]
  IC50: 3.79 ± 0.103 µM
HeLa cells [4]; [11]
  inhibition at 0.25 µM: 0%
  inhibition at 0.5 µM: 3.48%
  inhibition at 1 µM: 8.91%
  inhibition at 2 µM: 42.2%
  inhibition at 4 µM: 54.2%
  inhibition at 8 µM: 67.5%
  inhibition at 16 µM: 77.1%
HeLa cells [4]; [12]
  inhibition at 0.25 µM: 7.86%
  inhibition at 0.5 µM: 5.51%
  inhibition at 1 µM: 15.1%
  inhibition at 2 µM: 42.1%
  inhibition at 4 µM: 56.2%
  inhibition at 8 µM: 66.5%
  inhibition at 16 µM: 77.2%

## CCOc1cccc(-n2cc(-c3cccc(Nc4ncnc5cc(OCCOC)c(OCCOC)cc45)c3)nn2)c1 [Compound 4n, [6,7-Bis-(2-methoxy-ethoxy)-quinazolin-4-yl]-{3-[1-(3-ethoxy-phenyl)-1H-[1,2,3]triazol-4-yl]-phenyl}-amine]
HeLa cells [2]; 3 μM, 72 h
  Q3: FITC-A+ , PE-A- Freq. of Parent: 0.75% and 1.15% and 1.24%
HeLa cells [2]; 6 μM, 72 h
  Q2: FITC-A+ , PE-A+ Freq. of Parent: 21.9%
  Q3: FITC-A+ , PE-A- Freq. of Parent: 5.30% and 1.36% and 0.76%
HeLa cells [2]; 6 μM
  Q2+Q3 (as fraction): 0.272 and 0.3116 and 0.2626
HeLa cells [2]; 12 μM, 72 h
  Q2: FITC-A+ , PE-A+ Freq. of Parent: 61.9%
  Q3: FITC-A+ , PE-A- Freq. of Parent: 2.53% and 1.19% and 1.05%
HeLa cells [2]; 12 μM
  Q2+Q3 (as fraction): 0.6443 and 0.5879 and 0.6565
other
  melting point: 110 to 114 °C
HeLa cells [4]; [7]
  IC50: 8.21 ± 1.05 µM
HeLa cells [4]; [8]
  IC50: 7.21 µM
HeLa cells [4]; [9]
  IC50: 9.31 µM
HeLa cells [4]; [10]
  IC50: 8.21 ± 1.05 µM
HeLa cells [4]; [11]
  inhibition at 0.25 µM: 0%
  inhibition at 0.5 µM: 4.33%
  inhibition at 1 µM: 7.26%
  inhibition at 2 µM: 12.8%
  inhibition at 4 µM: 31.2%
  inhibition at 8 µM: 51.9%
  inhibition at 16 µM: 77.1%
HeLa cells [4]; [12]
  inhibition at 0.25 µM: 2.69%
  inhibition at 0.5 µM: 4.33%
  inhibition at 1 µM: 6.45%
  inhibition at 2 µM: 10.8%
  inhibition at 4 µM: 18.5%
  inhibition at 8 µM: 45.5%
  inhibition at 16 µM: 69.6%
